Assays:
Cdk4/CyclinD1 = Cdk4/CyclinD1 (Homo sapiens, UniProt P11802); assay: Cdk4 kinase inhibition assay (33P-ATP filter plate, Rb substrate); type: biochemical; conditions: recombinant Cdk4/CyclinD1, Rb substrate, 25 μM ATP, 1 hour room temperature; read-out: Cdk 4 IC50
Protocol: (§1) The Cdk4 and Cdk6 inhibitory activity of the compounds is measured with a kinase inhibition assay using recombinant Cdk4/CyclinD1 or Cdk6/CyclinD3 protein complexes. The protein substrate used in the assay is the retinoblastoma protein (Rb). The kinase reactions are carried out in a 96-well filter plate (MSDV N6B50, Millipore). Compounds are serially diluted in kinase buffer (20 mM Tris-HCl, pH 7.4, 50 mM NaCl, 1 mM DTT, 1 mg/ml BSA) and added to the reaction mixture containing 2.5 ng/ml Cdk4/CyclinD1 or Cdk6/CyclinD3, 25 μM ATP, 10 μCi/ml [^33P]-ATP, 0.1 μg/ml Rb in the kinase buffer. The mixture is incubated at room temperature for 1 hour and the proteins precipitated with an equal volume of 20% TCA. The plates are washed with 10% TCA according to the manufacturer's instruction and dried at room temperature. The amount of the phosphorylated Rb is determined with a TopCount (PerkinElmer). The IC50 of a compound is determined by nonlinear regression curve fitting using software program Prism 5 (GraphPad Software).

Cdk6/CyclinD3 = Cdk6/CyclinD3 (Homo sapiens, UniProt Q00534); assay: Cdk6 kinase inhibition assay (33P-ATP filter plate, Rb substrate); type: biochemical; conditions: recombinant Cdk6/CyclinD3, Rb substrate, 25 μM ATP, 1 hour room temperature; read-out: Cdk 6 IC50
Sequence of Cdk6/CyclinD3 (Q00534 whole entry): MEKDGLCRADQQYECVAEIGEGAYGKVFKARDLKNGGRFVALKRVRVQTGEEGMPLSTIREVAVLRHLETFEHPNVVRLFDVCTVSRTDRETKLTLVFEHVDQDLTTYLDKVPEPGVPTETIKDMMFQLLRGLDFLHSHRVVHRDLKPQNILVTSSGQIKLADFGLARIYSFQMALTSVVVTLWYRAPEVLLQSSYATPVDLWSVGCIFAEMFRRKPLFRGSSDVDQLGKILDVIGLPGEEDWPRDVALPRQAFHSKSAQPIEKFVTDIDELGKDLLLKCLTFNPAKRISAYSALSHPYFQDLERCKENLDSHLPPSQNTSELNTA
Sequence of Cdk6/CyclinD3 (P30281 whole entry partner): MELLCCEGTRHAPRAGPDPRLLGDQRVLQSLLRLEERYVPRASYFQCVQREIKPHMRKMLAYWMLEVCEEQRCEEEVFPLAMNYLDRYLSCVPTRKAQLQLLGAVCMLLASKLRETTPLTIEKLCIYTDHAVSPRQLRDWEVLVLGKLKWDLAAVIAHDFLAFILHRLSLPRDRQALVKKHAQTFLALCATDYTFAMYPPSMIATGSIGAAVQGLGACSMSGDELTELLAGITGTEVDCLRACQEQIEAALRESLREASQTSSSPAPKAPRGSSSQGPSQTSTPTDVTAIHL
Protocol: as §1

Sequence of Cdk4/CyclinD1 (P11802 whole entry): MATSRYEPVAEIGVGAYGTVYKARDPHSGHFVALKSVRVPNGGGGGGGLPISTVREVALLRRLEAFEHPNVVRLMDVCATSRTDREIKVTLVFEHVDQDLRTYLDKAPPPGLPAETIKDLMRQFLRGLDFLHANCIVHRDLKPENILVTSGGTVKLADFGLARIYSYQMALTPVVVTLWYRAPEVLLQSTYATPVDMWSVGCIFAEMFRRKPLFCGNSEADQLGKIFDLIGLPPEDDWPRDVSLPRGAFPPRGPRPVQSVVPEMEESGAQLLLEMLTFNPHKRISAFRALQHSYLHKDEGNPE
Sequence of Cdk4/CyclinD1 (P24385 whole entry partner): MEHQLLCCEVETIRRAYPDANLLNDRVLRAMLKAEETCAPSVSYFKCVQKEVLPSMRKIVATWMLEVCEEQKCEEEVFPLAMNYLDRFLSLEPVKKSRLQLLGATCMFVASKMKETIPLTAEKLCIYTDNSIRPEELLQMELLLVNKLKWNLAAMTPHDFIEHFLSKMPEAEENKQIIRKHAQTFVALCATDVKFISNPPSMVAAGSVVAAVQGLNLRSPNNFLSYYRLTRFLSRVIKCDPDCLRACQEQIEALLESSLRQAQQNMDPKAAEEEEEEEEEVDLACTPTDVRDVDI

| IC50 (Cdk4/CyclinD1) [nM] | IC50 (Cdk6/CyclinD3) [nM] | SMILES |
| --- | --- | --- |
| 14.2 | 14.2 | CN1CCN(c2ccc(Nc3ncc4c(n3)C3(CCCCC3)Oc3ccccc3-4)cc2)CC1 [Example 3, N-(4-(4-methyl-1-piperazinyl)phenyl)spiro[chromeno[3,4-d]pyrimidine-5,1′-cyclohexan]-3-amine] |
| 84 | 13.5 | c1ccc2c(c1)OC1(CCCC1)c1nc(Nc3ccc(N4CCNCC4)cn3)ncc1-2 [Example 15, N-(5-(1-piperazinyl)-2-pyridinyl)spiro[chromeno[3,4-d]pyrimidine-5,1′-cyclopentan]-3-amine] |
| 2850 | 2620 | CS(=O)(=O)c1cccc2c1OC1(CCCCC1)c1nc(Nc3ccc(N4CCNCC4)cn3)ncc1-2 [Example 23, 7-(methylsulfonyl)-N-(5-(1-piperazinyl)-2-pyridinyl)spiro[chromeno[3,4-d]pyrimidine-5,1′-cyclohexan]-3-amine] |
| 14.6 | 205 | CN(C)C1CCN(c2ccc(Nc3ncc4c(n3)C3(C=CC(C)(C)CC3)c3cnccc3-4)nn2)CC1 (racemic) [Example 76, (racemic)-4,4-dimethyl-N-(6-(4-(dimethylamino)piperidin-1-yl)-pyridazin-3-yl)spiro[cyclohex-2-ene-1,9′-pyrido[4′,3′:3,4]cyclopenta[1,2-d]pyrimidin]-2′-amine] |
| 77 | 60 | CC1(C)CC2(CCO1)Oc1ncccc1-c1cnc(Nc3ccc(N4CCNCC4)cc3)nc12 (racemic) [Example 35, (racemic)-2,2-dimethyl-N-(4-(1-piperazinyl)phenyl)-2,3,5,6-tetrahydrospiro[pyran-4,5′-pyrido[3′,2′:5,6]pyrano[3,4-d]pyrimidin]-3′-amine] |
| 5.9 | 1.1 | c1cnc2c(c1)-c1cnc(Nc3ccc(N4CCNCC4)cc3)nc1C1(CCCCC1)O2 [Example 29, N-(4-(1-piperazinyl)phenyl)spiro[cyclohexane-1,5′-pyrido[3′,2′:5,6]pyrano[3,4-d]pyrimidin]-3′-amine] |
| 74 | 68 | CC1(C)CCC2(CC1)Oc1ncccc1-c1cnc(Nc3ccc(N4CCNCC4)cn3)nc12 [Example 27, 4,4-dimethyl-N-(5-(1-piperazinyl)-2-pyridinyl)spiro[cyclohexane-1,5′-pyrido[3′,3′:5,6]pyrano[3,4-d]pyrimidin]-3′-amine] |
| 2500 |  | CC1=CC(=O)C2(CCCC2)c2nc(Nc3ccc(N4CCNCC4)cn3)ncc21 [Example 73, 5′-methyl-2′-((5-(1-piperazinyl)-2-pyridinyl)amino)-7′H-spiro[cyclopentane-1,8′-quinazolin]-7′-one] |
| 330 | 540 | c1cnc2c(c1)OC1(CCOCC1)c1nc(Nc3ccc(N4CCNCC4)cc3)ncc1-2 [Example 25, N-(4-(1-piperazinyl)phenyl)-2,3,5,6-tetrahydrospiro[pyran-4,6′-pyrido[2′,3′:5,6]pyrano[3,4-d]pyrimidin]-8′-amine] |
| 668 |  | CC1(C)CCc2cnc(Nc3ccc(N4CCNCC4)cc3)nc21 [Example 49, 7,7-dimethyl-N-(4-(1-piperazinyl)phenyl)-6,7-dihydro-5H-cyclopenta[d]pyrimidin-2-amine] |
| 44 | 266 | O=C(c1csc(Nc2ncc3c(n2)C2(CCCCC2)c2cnccc2-3)n1)N1CCNCC1 [Example 48, N-(4-(1-piperazinylcarbonyl)-1,3-thiazol-2-yl)spiro[cyclohexane-1,9′-pyrido[4′,3′:3,4]cyclopenta[1,2-d]pyrimidin]-2′-amine] |
| 1140 |  | O=C1NC2(CCCCC2)c2nc(Nc3ccc(N4CCNCC4)cc3)ncc21 [Example 68, 2′-((4-(1-piperazinyl)phenyl)amino)spiro[cyclohexane-1,7′-pyrrolo[3,4-d]pyrimidin]-5′(6′H)-one] |
| 84 | 33 | OC1CCC2(CC1)Oc1ncccc1-c1cnc(Nc3ccc(N4CCNCC4)cn3)nc12 (mixture of isomers) [Example 40] |
| 3500 | 1800 | C[C@@H]1CC(=O)C2(CC=CC2)c2nc(Nc3ccc(N4CCNCC4)cn3)ncc21 [Example 74, (5′R)-5′-methyl-2′-((5-(1-piperazinyl)-2-pyridinyl)amino)-5′,6′-dihydro-7′H-spiro[cyclopent-3-ene-1,8′-quinazolin]-7′-one] |
| 410 |  | c1cc2c(cn1)C1(CCOCC1)c1nc(Nc3ccc(N4CCNCC4)cn3)ncc1-2 [Example 63, N-(5-(1-piperazinyl)-2-pyridinyl)-2,3,5,6-tetrahydrospiro[pyran-4,9′-pyrido[4′,3′:3,4]cyclopenta[1,2-d]pyrimidin]-2′-amine] |
| 56.2 | 81 | c1ccc2c(c1)-c1cnc(Nc3ccc(N4CCNCC4)cc3)nc1C21CCNCC1 [Example 50, N-(4-(1-piperazinyl)phenyl)spiro[indeno[2,1-d]pyrimidine-9,4′-piperidin]-2-amine] |
| 0.8 | 27 | CC1(C)C=CC2(CC1)c1cnccc1-c1cnc(Nc3ccc(N4CCNCC4)cc3)nc12 (racemic) [Example 44, (racemic)-4,4-dimethyl-N-(4-(1-piperazinyl)phenyl)spiro[cyclohex-2-ene-1,9′-pyrido[4′,3′:3,4]cyclopenta[1,2-d]pyrimidin]-2′-amine] |
| 710 | 510 | CC1CC(O)C2(CC=CC2)c2nc(Nc3ccc(N4CCNCC4)cn3)ncc21 [Example 71, (7S)-5′-methyl-2′-((5-(1-piperazinyl)-2-pyridinyl)amino)-6′,7′-dihydro-5′H-spiro[cyclopent-3-ene-1,8′-quinazolin]-7′-ol] |

Reference: patent US8389533B2, “Gem-disubstituted and spirocyclic amino pyridines/pyrimidines as cell cycle inhibitors” (Amgen Inc., priority 2008, dated 2013)
